The values below come from patent US20240246967A1, “AXL COMPOUNDS” (ARCUS BIOSCIENCES, INC., priority 2021, published 2024).

What is called IC50 is the concentration at which inhibition is half-maximal.

Test [1] concerns the target T1, Axl (Homo sapiens, UniProt P30530).
T1 sequence (P30530 26-894): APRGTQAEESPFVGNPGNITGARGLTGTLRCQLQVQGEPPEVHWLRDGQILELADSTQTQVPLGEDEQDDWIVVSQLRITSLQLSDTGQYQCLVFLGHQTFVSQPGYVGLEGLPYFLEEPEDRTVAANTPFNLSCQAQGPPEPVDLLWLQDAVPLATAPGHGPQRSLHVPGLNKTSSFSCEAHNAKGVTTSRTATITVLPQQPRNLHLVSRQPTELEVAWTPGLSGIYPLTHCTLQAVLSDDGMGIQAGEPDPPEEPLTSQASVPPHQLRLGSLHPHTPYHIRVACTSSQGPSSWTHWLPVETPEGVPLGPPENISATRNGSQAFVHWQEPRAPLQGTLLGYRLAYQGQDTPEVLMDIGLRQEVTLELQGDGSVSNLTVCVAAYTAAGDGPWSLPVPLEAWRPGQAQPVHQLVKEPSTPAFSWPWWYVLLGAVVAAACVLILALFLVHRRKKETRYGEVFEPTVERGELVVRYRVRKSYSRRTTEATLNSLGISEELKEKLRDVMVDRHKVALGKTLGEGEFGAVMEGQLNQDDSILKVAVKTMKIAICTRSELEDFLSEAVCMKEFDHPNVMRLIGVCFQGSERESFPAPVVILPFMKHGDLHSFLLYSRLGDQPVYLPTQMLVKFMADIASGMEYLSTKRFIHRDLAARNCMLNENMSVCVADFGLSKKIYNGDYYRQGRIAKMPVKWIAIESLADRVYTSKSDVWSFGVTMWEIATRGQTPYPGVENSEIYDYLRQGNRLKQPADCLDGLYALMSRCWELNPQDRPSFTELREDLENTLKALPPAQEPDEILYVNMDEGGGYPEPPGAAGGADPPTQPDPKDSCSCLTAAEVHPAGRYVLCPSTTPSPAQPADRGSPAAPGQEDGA
Nature of the test: Axl NanoBRET intracellular kinase assay (intracellular binding, Cell Binding). Also noted: host or cells: HEK-293. The note with it: HEK-293 cells transfected with Axl-NanoLuc fusion vector; 0.35 μM K-5 NanoBRET tracer. How it is done:
Axl NanoBRET™ intracellular kinase assay (Promega, N2540) was performed according to manufacturer's recommendation. In brief, HEK-293 cells are transiently transfected with Axl-NanoLuc fusion vector (Promega, NV1071), utilizing Fugene HD transfection reagent (Promega, E2311) a day before experiment following manufacturer's recommendation.
The day of the assay, the cells were collected and resuspended in Opti-MEM media (ThermoFisher, 31985070) at 2e5 cells/mL concentration. Testing compounds were serial diluted and dispensed into a white 384 well polystyrene plate at 200 nL in 100% DMSO. 40 μL of resuspended cells is then added per well for a final condition of 8K cells/well with 0.5% DMSO. After one-hour compound pre-incubation at 37° C. and 5% CO2, cells were further incubated with 0.35 μM K-5 NanoBRET tracer for two-hours at 37° C. and 5% CO2. […] of 3× substrate plus Inhibitor solution was prepared according to kits manual and added to the cells followed by a 30 second pulse centrifugation spin. The plate was then immediately read utilizing an Envision (Perkin Elmer) plate reader. The BRET signal is measured by taking the ratio of the emissions reading at 610 nm and 450 nm. Compound binding is based on the decrease BRET signal caused by the displacement of the K-5 tracer. […] IC50 value of compounds was determined by 4-parameter non-linear regression fitting of percent activity in GraphPad Prism software.

Test [2] has as its target T1, Axl. Nature of the test: HTRF KinEASE-TK biochemical potency assay, AXL. Also noted: purchased Invitrogen. The following applies: 5 nM AXL, 700 μM ATP, 800 nM TK Substrate-biotin. How it is done: Purified recombinant human AXL, TYRO3 and MER proteins were purchased from Invitrogen™. 10 nM AXL, 2 nM TYRO3 or MER were incubated with varying concentrations of compounds in 50 mM HEPES, pH 7.4, 10 mM MgCl2, 0.01% BSA, 1 mM DTT and 2% DMSO in a total volume of 20 μl in a 384-well microplate (Corning™ #3640) at RT for 1 h. The AXL, TYRO3 and MER enzymatic reaction was initiated by transferring 10 μl of enzyme and compound mixture into 10 μl of 1.6 μM TK Substrate-biotin (HTRF® KinEASE-TK kit, Cisbio) and 1400 μM ATP pre-incubated in 50 mM HEPES, pH 7.4, 10 mM MgCl2, 0.01% BSA, 1 mM DTT in a 384-well microplate (Corning™ #3640) at RT, giving the final reaction conditions: 5 nM AXL, 1 nM TYRO3 or MER, 800 nM TK Substrate-biotin and 700 μM ATP in 50 mM HEPES, pH 7.4, 10 mM MgCl2, 0.01% BSA, 1 mM DTT and 1% DMSO with varying concentrations of compounds. Following 2 h incubation at RT, the AXL, TYRO3 and MER enzymatic reaction was stopped by transfer of 10 μl of reaction into 10 μl of detection mix (400 nM Streptavidin-XL665, 200-fold dilution TK Antibody-Cryptate and detection buffer, HTRF® KinEASE-TK kit, Cisbio) in a white 384-well microplate (Perkin Elmer, OptiPlate 384). After 1 h incubation at RT, the plate was put into a plate reader (Evision) to read at 665/620 nm (acceptor/donor) for HTRF. The value of the DMSO blank (MIN inhibition=100% activity) was used as a negative control. The positive control was established by adding 5 μl of enzyme and DMSO mixture into 10 μl of detection mix followed by addition of 5 μl of TK Substrate-biotin and ATP mixture (MAX inhibition=0% activity). To calculate the percent activity, Equation 1 was used. Ratio 665/620 is the value at a given compound concentration: […]

Take `CC1(N2CCC[C@H]2CO)CCc2ccc(-c3cnc4[nH]nc(-c5ccc(S(=O)(=O)C6CC6)cc5)c4c3)cc2CC1` (stereo partly drawn) [Example 4, [(2S)-1-(2-{3-[4-(Cyclopropanesulfonyl)phenyl]-1H-pyrazolo[3,4-b]pyridin-5-yl}-7-methyl-6,7,8,9-tetrahydro-5H-benzo[7]annulen-7-yl)pyrrolidin-2-yl]methanol]: the IC50 at Axl [1] and against Axl [2] was under 0.1 µM each time.

In the case of `C[C@H]1CCCN1C1(C)CCc2ccc(-c3cnc4[nH]nc(-c5ccc(S(=O)(=O)C6CC6)cc5)c4c3)cc2CC1` (stereo partly drawn) [Example 5, (2S)-1-(2-{3-[4-(Cyclopropanesulfonyl)phenyl]-1H-pyrazolo[3,4-b]pyridin-5-yl}-7-methyl-6,7,8,9-tetrahydro-5H-benzo[7]annulen-7-yl)-2-methylpyrrolidine], the IC50 at Axl [1] and against Axl [2] was under 0.1 µM in each case.

In the case of `CCC1(N2CCC[C@H]2C)CCc2ccc(-c3cnc4[nH]nc(-c5ccc(S(=O)(=O)C6CC6)cc5)c4c3)cc2CC1` (stereo partly drawn) [Example 6, (2R)-1-(2-{3-[4-(Cyclopropanesulfonyl)phenyl]-1H-pyrazolo[3,4-b]pyridin-5-yl}-7-ethyl-6,7,8,9-tetrahydro-5H-benzo[7]annulen-7-yl)-2-methylpyrrolidine], the IC50 was 0.1 to 1 µM on Axl [1] and under 0.1 µM against Axl [2].

Take `CC1(N2CCC2)CCc2ccc(-c3cnc4[nH]nc(-c5ccc(S(=O)(=O)C6CC6)cc5)c4c3)cc2CC1` (stereo not drawn) [Example 7, 1-(2-{3-[4-(Cyclopropanesulfonyl)phenyl]-1H-pyrazolo[3,4-b]pyridin-5-yl}-7-methyl-6,7,8,9-tetrahydro-5H-benzo[7]annulen-7-yl)azetidine]: the IC50 on Axl [1] and at Axl [2] was under 0.1 µM each time.

Take `C[C@@H]1CCCN1C1(C)CCc2ccc(-c3cnc4[nH]nc(-c5ccc(S(=O)(=O)C(F)(F)F)cc5)c4c3)cc2CC1` (stereo partly drawn) [Example 8, (2R)-2-Methyl-1-{7-methyl-2-[3-(4-trifluoromethanesulfonylphenyl)-1H-pyrazolo[3,4-b]pyridin-5-yl]-6,7,8,9-tetrahydro-5H-benzo[7]annulen-7-yl}pyrrolidine]: the IC50 at Axl [1] is over 1 µM; at Axl [2], under 0.1 µM.

Turning to `CC(C)(O)c1ccc(-c2n[nH]c3ncc(-c4ccc5c(c4)CCC(N4CCCC4)CC5)cc23)cn1` (stereo not drawn) [Example 9, 2-(5-{5-[7-(Pyrrolidin-1-yl)-6,7,8,9-tetrahydro-5H-benzo[7]annulen-2-yl]-1H-pyrazolo[3,4-b]pyridin-3-yl}pyridin-2-yl)propan-2-ol], the IC50 on Axl [1] and on Axl [2] was under 0.1 µM throughout.

Take `CC(C)(O)c1ccc(-c2n[nH]c3ncc(-c4ccc5c(c4)CCN(C4CCCC4)CC5)cc23)cn1` [Example 10, 2-{5-[5-(3-Cyclopentyl-2,3,4,5-tetrahydro-1H-3-benzazepin-7-yl)-1H-pyrazolo[3,4-b]pyridin-3-yl]pyridin-2-yl}propan-2-ol]: the figures for the IC50 at Axl [1] and at Axl [2] were 0.1 to 1 µM and under 0.1 µM, respectively.

For the compound `CC(C)(O)c1ccc(-c2n[nH]c3ncc(-c4ccc5c(c4)CCC(N4CCCC4)CC5)cc23)cc1Cl` (stereo not drawn) [Example 11, 2-(2-Chloro-4-{5-[7-(pyrrolidin-1-yl)-6,7,8,9-tetrahydro-5H-benzo[7]annulen-2-yl]-1H-pyrazolo[3,4-b]pyridin-3-yl}phenyl)propan-2-ol], the IC50 at Axl [1] and at Axl [2] was under 0.1 µM each time.

In the case of `CC(C)(O)c1ccc(-c2n[nH]c3ncc(-c4ccc5c(c4)CCN(C4CCCC4)CC5)cc23)cc1Cl` [Example 12, 2-{2-Chloro-4-[5-(3-cyclopentyl-2,3,4,5-tetrahydro-1H-3-benzazepin-7-yl)-1H-pyrazolo[3,4-b]pyridin-3-yl]phenyl}propan-2-ol], the results for the IC50 on Axl [1] and on Axl [2] were 0.1 to 1 µM and under 0.1 µM, respectively.

Take `CC(C)(O)c1ccc(-c2n[nH]c3ncc(-c4ccc5c(c4)CCN(C4CCCC4)CC5)cc23)cc1C(F)(F)F` [Example 16, 2-{4-[5-(3-Cyclopentyl-2,3,4,5-tetrahydro-1H-3-benzazepin-7-yl)-1H-pyrazolo[3,4-b]pyridin-3-yl]-2-(trifluoromethyl)phenyl}propan-2-ol]: the results for the IC50 on Axl [1] and against Axl [2] were 0.1 to 1 µM and under 0.1 µM, respectively.

With `CC(C)(O)c1ccc(-c2n[nH]c3ncc(-c4ccc5c(c4)CCN(C4CCCC4)CC5)cc23)c(F)c1` [Example 17, 2-{4-[5-(3-Cyclopentyl-2,3,4,5-tetrahydro-1H-3-benzazepin-7-yl)-1H-pyrazolo[3,4-b]pyridin-3-yl]-3-fluorophenyl}propan-2-ol], the values for the IC50 on Axl [1] and on Axl [2] were 0.1 to 1 µM and under 0.1 µM, respectively.

With `C[C@@H]1CCCN1C1CCc2ccc(-c3cnc4[nH]nc(-c5ccc(C(C)(C)O)c(C(F)(F)F)c5)c4c3)cc2CC1` (stereo partly drawn) [Example 20, 2-[4-(5-{7-[(2R)-2-Methylpyrrolidin-1-yl]-6,7,8,9-tetrahydro-5H-benzo[7]annulen-2-yl}-1H-pyrazolo[3,4-b]pyridin-3-yl)-2-(trifluoromethyl)phenyl]propan-2-ol], the IC50 at Axl [1] and against Axl [2] was under 0.1 µM in each case.

For the compound `CC(C)(O)c1ccc(-c2n[nH]c3ncc(-c4ccc5c(c4)CCC(N4CCC[C@@H]4CO)CC5)cc23)cc1Cl` (stereo partly drawn) [Example 21, 2-[2-Chloro-4-(5-{7-[(2R)-2-(hydroxymethyl)pyrrolidin-1-yl]-6,7,8,9-tetrahydro-5H-benzo[7]annulen-2-yl}-1H-pyrazolo[3,4-b]pyridin-3-yl)phenyl]propan-2-ol], the IC50 on Axl [1] and on Axl [2] was under 0.1 µM in each case.

Turning to `C[C@@H]1CCCN1C1(C)CCc2ccc(-c3cnc4[nH]nc(-c5ccc(C(C)(C)O)nc5)c4c3)cc2CC1` (stereo partly drawn) [Example 22, 2-[5-(5-{7-Methyl-7-[(2R)-2-methylpyrrolidin-1-yl]-6,7,8,9-tetrahydro-5H-benzo[7]annulen-2-yl}-1H-pyrazolo[3,4-b]pyridin-3-yl)pyridin-2-yl]propan-2-ol], the IC50 at Axl [1] and against Axl [2] was under 0.1 µM in each case.

As to `CS(=O)(=O)N1CCC(c2n[nH]c3ncc(-c4ccc5c(c4)CCC(N4CCCC4)CC5)cc23)CC1` (stereo not drawn) [Example 23, 1-Methanesulfonyl-4-{5-[7-(pyrrolidin-1-yl)-6,7,8,9-tetrahydro-5H-benzo[7]annulen-2-yl]-1H-pyrazolo[3,4-b]pyridin-3-yl}piperidine], the IC50 was 0.1 to 1 µM on Axl [1] and under 0.1 µM on Axl [2].
